# Columns and labels:
# ATR-Chk1 DDR pathway [1] = assay: Defined SSB plasmid-induced checkpoint signaling in Xenopus HSS system (immunoblotting); assay type: biochemical, Xenopus laevis; conditions: for SSB-induced Chk1 phosphorylation (Chk1 P-S344): HSS with SSB plasmid 75 ng/μL, 30 min incubation, inhibitor added
# Experimental: CTL or SSB plasmid was added to HSS at different concentrations as indicated, and incubated for 30 minutes. Extracts were examined via immunoblotting analysis for Chk1 phosphorylation (i.e., Chk1 P-Ser344) and total Chk1 (FIG. 8A). CTL or SSB plasmid was added to HSS at a final concentration of 75 ng/μL. After different time of incubation at room temperature, the extracts were examined via immunoblotting analysis (FIG. 8B). ATR inhibitor VE-822, ATM inhibitor KU55933, DNA-PK inhibitor NU7441, or recombinant geminin was added to HSS supplemented with CTL or SSB plasmid at a final concentration of […] for 30 minutes. Geminin or roscovitine was added to HSS supplemented with sperm chromatin and hydrogen peroxide. After a 45-min incubation, extracts were examined via immunoblotting analysis as indicated (FIG. 8F). CTL, SSB, or DSB plasmid was added to HSS at different concentrations as indicated. Samples were examined via immunoblotting analysis (FIG. 8G).
# CTL or SSB plasmid was added to HSS with the presence or absence of VE-822. After 30-min incubation, Chk1 phosphorylation, RPA32 phosphorylation, and Rad17 phosphorylation were examined via immunoblotting analysis as indicated in the image in FIG. 9A. CTL or SSB plasmid was added to NPE with the presence or absence of VE-822 (ATR inhibitor) or Tautomycin (phosphatase inhibitor). Samples were examined via immunoblotting analysis as illustrated in FIG. 9B. For FIG. 9C, CTL or SSB plasmid was added to mock- or Pol alpha-depleted HSS. After 30-min incubation, samples were analyzed via immunoblotting analysis, as illustrated.
# (§1) The care and use of Xenopus laevis was approved by the Institutional Animal Care and Use Committee (IACUC) of the University of North Carolina at Charlotte. The preparation of Xenopus LSS, HSS, and NPE were described previously (35,36,39, which are hereby incorporated by reference herein). […] DNA synthesis analysis was performed as previously described (11,35, which are hereby incorporated by reference herein). ImageQuat software was used to quantify the DNA synthesis from HSS/NPE system. […] DNA-bound fractions from the HSS system were isolated after spinning extracts through a sucrose cushion (0.9 M sucrose, 2.5 mM MgCl2, 50 mM KCl, 10 mM HEPES, pH7.7) at 10,000 rpm for 2 minutes at 4° C. with a swinging bucket.
# To determine whether a defined SSB structure triggers a DDR pathway, different concentrations of SSB or CTL plasmid structure were added to HSS, followed by immunoblotting analysis after a 30-minute incubation.
# ATR-Chk1 DDR pathway [2] = assay: Plasmid-induced Chk1 phosphorylation in NPE (immunoblotting); assay type: biochemical, Xenopus laevis
# Experimental: After 30-min incubation, Chk1 phosphorylation, RPA32 phosphorylation, and Rad17 phosphorylation were examined via immunoblotting analysis as indicated in the image in FIG. 9A. […] Samples were examined via immunoblotting analysis as illustrated in FIG. 9B. For FIG. 9C, CTL or SSB plasmid was added to mock- or Pol alpha-depleted HSS. After 30-min incubation, samples were analyzed via immunoblotting analysis, as illustrated.
# as §1
# ATR-Chk1 DDR pathway [3] = assay: Hydrogen peroxide-induced Chk1 phosphorylation in HSS supplemented with sperm chromatin (immunoblotting); assay type: biochemical, Xenopus laevis; conditions: HSS with sperm chromatin and hydrogen peroxide, 45-min incubation
# Experimental: FIGS. 8A-8G illustrate that the ATR-Chk1 DNA damage response pathway is induced by the defined SSB structure in the HSS system. CTL or SSB plasmid was added to HSS at different concentrations as indicated, and incubated for 30 minutes. Extracts were examined via immunoblotting analysis for Chk1 phosphorylation (i.e., Chk1 P-Ser344) and total Chk1 (FIG. 8A). CTL or SSB plasmid was added to HSS at a final concentration of 75 ng/μL. After different time of incubation at room temperature, the extracts were examined via immunoblotting analysis (FIG. 8B). ATR inhibitor VE-822, ATM inhibitor KU55933, DNA-PK inhibitor NU7441, or recombinant geminin was added to HSS supplemented with CTL or SSB plasmid at a final concentration of […] for 30 minutes. Geminin or roscovitine was added to HSS supplemented with sperm chromatin and hydrogen peroxide. After a 45-min incubation, extracts were examined via immunoblotting analysis as indicated (FIG. 8F). CTL, SSB, or DSB plasmid was added to HSS at different concentrations as indicated. Samples were examined via immunoblotting analysis (FIG. 8G).
# The care and use of Xenopus laevis was approved by the Institutional Animal Care and Use Committee (IACUC) of the University of North Carolina at Charlotte. […] ImageQuat software was used to quantify the DNA synthesis from HSS/NPE system. […]
# SSB repair = SSB repair of SSB plasmid in the HSS system (agarose gel); assay type: biochemical, Xenopus laevis; conditions: SSB plasmid in HSS with or without VE-822; circular/(circular+nicked)
# Experimental: FIGS. 6A-6D illustrate verification and analysis of the defined DNA structures. FIG. 6A is an image verifying the defined SSB structure on agarose gel (Ethidium bromide staining). CTL plasmid was added to HSS for different time. Then DNA samples were isolated and treated with or without Sbfl, and analyzed on agarose gel (Ethidium bromide staining) as shown in FIG. 6B. For FIG. 6C, the SSB plasmid was added to HSS with or without VE-822 for different time as indicated. SSB repair products were isolated and examined on agarose gel (Ethidium bromide staining). FIG. 6D is a graph quantifying SSB repair capacity (circular/(circular+nicked)×100) with or without VE-822 treatment in the HSS system from FIG. 6C.
# Nuclease-free water was added to each reaction of HSS that was incubated with SSB or DSB plasmid to a total of 300 μL. Equal volume of phenol-chloroform was added to the mixture and resuspended up and down 5 times and spin for 5 minutes at 13,000 rpm at room temperature. The top aqueous layer was transferred to a new tube and repeat phenol-chloroform extraction. […] Then the purified DNA repair products were analyzed on agarose gel and stained with ethidium bromide. […]
# U2OS cells = assay: Hydrogen peroxide-induced ATR-Chk1 DDR in human U2OS cells (immunoblotting); assay type: cell-based; conditions: asynchronized U2OS cells; VE-822 5 μM 1 hour, then hydrogen peroxide 1.25 mM 4 hours
# Experimental: FIGS. 11A-11B illustrate that hydrogen peroxide induces Chk1 phosphorylation and RPA32 phosphorylation in an ATR-dependent manner in human U2OS cells. FIG. 11A is a digital image of immunoblotting analysis of asynchronized U2OS cells treated with H2O2 and/or VE-822. Cell lysates were analyzed via immunoblotting analysis as indicated. G1 synchronized U2OS cells were treated with H2O2 and/or VE-822. Cell lysates were analyzed via immunoblotting analysis as indicated and illustrated in FIG. 11B.
# Human U2OS cells were purchased from the American Type Culture Collection (ATCC) and cultured in Dulbecco's Modified Eagle Medium (DMEM, Life Technologies) supplemented with 10% fetal bovine serum (FBS, Invitrogen), penicillin (100 U/mL) and streptomycin (100 μg/mL, Life Technologies) in incubator at 37° C. and 5% CO2. […] Cells were treated with VE-822 (5 μM) in culture medium for 1 hour followed by hydrogen peroxide treatment (1.25 mM) for 4 hours. Then cells were collected and split for immunoblotting analysis and FACS analysis. For immunoblotting analysis, equal total proteins of cell lysates (10 μg per lane) were loaded and Tubulin was used for loading control. For FACS analysis, cells were further fixed and stained with DAPI followed by cell cycle profiling using FACS machine (BD LSRFortessa) following manufacturer's standard protocol.
molecule,measurement,setting,value
C[C@@]1(CO)[C@H](O)CC[C@@]2(C)[C@H]1CC[C@H]1C[C@@H]3C[C@@]12CC[C@]3(O)CO [aphidicolin],SSB-induced Chk1 phosphorylation (Chk1 P-S344),ATR-Chk1 DDR pathway [1],not affected
CO[C@H]([C@H](O)CC(=O)[C@@H](C)[C@@H](O)CC[C@@H](C)[C@@H]1O[C@]2(CC[C@@H](C)[C@H](CC[C@H](C)C(C)=O)O2)CC[C@@H]1C)[C@H](OC(=O)C[C@@H](O)C1=C(C)C(=O)OC1=O)C(C)C [tautomycin],SSB plasmid-triggered Chk1 phosphorylation in NPE,"ATR-Chk1 DDR pathway [2]; with the presence of tautomycin, no detectable Chk1 phosphorylation without it",very robust
CC[C@H](CO)Nc1nc(NCc2ccccc2)c2ncn(C(C)C)c2n1 [rescovitine],hydrogen peroxide-induced Chk1 phosphorylation in the HSS,ATR-Chk1 DDR pathway [3],had no effect
CNCc1ccc(-c2cc(-c3nc(-c4ccc(S(=O)(=O)C(C)C)cc4)cnc3N)on2)cc1 [VE-822],SSB-induced Chk1 phosphorylation (Chk1 P-S344),ATR-Chk1 DDR pathway [1],compromised
same,SSB-induced RPA32 phosphorylation,"ATR-Chk1 DDR pathway [1]; HSS with SSB plasmid, 30 min",sensitive
same,SSB-induced Rad17 phosphorylation,"ATR-Chk1 DDR pathway [1]; HSS with SSB plasmid, 30 min",sensitive
same,SSB repair in the HSS system,SSB repair,compromised
same,hydrogen peroxide-induced Chk1 phosphorylation,U2OS cells,prevented
same,hydrogen peroxide-induced RPA32 phosphorylation,U2OS cells,prevented
same,Chk1 phosphorylation events in NPE (SSB plasmid- and CTL plasmid-induced),ATR-Chk1 DDR pathway [2]; NPE with the presence of tautomycin,inhibited
O=c1cc(N2CCOCC2)oc2c(-c3cccc4c3sc3ccccc34)cccc12 [NU7441],SSB-induced Chk1 phosphorylation (Chk1 P-S344),ATR-Chk1 DDR pathway [1],almost had no effect
"Nc1ccc2c3c(cccc13)C(=O)NC2=O [4-Amino-1,8-naphthalimide]",SSB-induced Chk1 phosphorylation (Chk1 P-S344),ATR-Chk1 DDR pathway [1],enhanced
O=c1cc(-c2cccc3c2Sc2ccccc2S3)oc(N2CCOCC2)c1 [KU55933],SSB-induced Chk1 phosphorylation (Chk1 P-S344),ATR-Chk1 DDR pathway [1],almost had no effect
"geminin: MCM helicase inhibitor recombinant geminin protein (protein, UniProt O75496 1-209, looked up) Geminin: MNPSMKQKQEEIKENIKNSSVPRRTLKMIQPSASGSLVGRENELSAGLSKRKHRNDHLTSTTSSPGVIVPESSENKNLGGVTQESFDLMIKENPSSQYWKEVAEKRRKALYEALKENEKLHKEIEQKDNEIARLKKENKELAEVAEHVQYMAELIERLNGEPLDNFESLDNQEFDSEEETVEDSLVEDSEIGTCAEGTVSSSTDAKPCI",SSB-induced Chk1 phosphorylation (Chk1 P-S344),ATR-Chk1 DDR pathway [1],not impaired
same,hydrogen peroxide-induced Chk1 phosphorylation in the HSS,ATR-Chk1 DDR pathway [3],had no effect
